# pIC50: −log10 of the molar value.
# Tests used:
# [1] = molecular target: Insulin receptor-related protein (Homo sapiens) (UniProt P14616); experiment: Inhibition of human INSRR assessed as residual activity at 1 uM using poly(Ala,Glu,Lys,Tyr)6:2:5:1 as substrate in presence of 33P-ATP by ProQinase assay relative to control
# [2] = Anti-inflammatory activity against human derived high respond PBMC cells assessed as inhibition in stimulated IL-4 cytokine release incubated for 2 hrs in the presence of LPS/SEB/aCD28 by Luminex based sandwich immunoassay; assay type: functional, cell-based
# [3] = molecular target: Interleukin-1 receptor-associated kinase 1 (Homo sapiens) (UniProt P51617); experiment: Inhibition of human IRAK1 assessed as residual activity at 1 uM using RB-CTF as substrate in presence of 33P-ATP by ProQinase assay relative to control
# [4] = molecular target: Ribosomal protein S6 kinase alpha-5 (Homo sapiens) (UniProt O75582); experiment: Inhibition of C-terminal kinase domain RPS6KA5 (unknown origin) assessed as remaining activity at 1 uM by Kinome scan method relative to control
# [5] = molecular target: Serine/threonine-protein kinase PLK1 (Homo sapiens) (UniProt P53350); experiment: Inhibition of human PLK1 assessed as residual activity at 1 uM using RBER-CHKtide as substrate in presence of 33P-ATP by ProQinase assay relative to control
# CYP1A = CYP1A (Homo sapiens, UniProt P04798+P05177); experiment: Inhibition of CYP1A (unknown origin) at 10 uM relative to control; assay type: ADME, protein assay
# [6] = molecular target: Ribosomal protein S6 kinase beta-1 (Homo sapiens) (UniProt P23443); experiment: Inhibition of human S6K1 assessed as residual activity at 1 uM using RBER-GSK3(14-27) as substrate in presence of 33P-ATP by ProQinase assay relative to control
# Ribosomal protein S6 kinase beta-1 (Homo sapiens), sequence (P23443 whole entry, looked up): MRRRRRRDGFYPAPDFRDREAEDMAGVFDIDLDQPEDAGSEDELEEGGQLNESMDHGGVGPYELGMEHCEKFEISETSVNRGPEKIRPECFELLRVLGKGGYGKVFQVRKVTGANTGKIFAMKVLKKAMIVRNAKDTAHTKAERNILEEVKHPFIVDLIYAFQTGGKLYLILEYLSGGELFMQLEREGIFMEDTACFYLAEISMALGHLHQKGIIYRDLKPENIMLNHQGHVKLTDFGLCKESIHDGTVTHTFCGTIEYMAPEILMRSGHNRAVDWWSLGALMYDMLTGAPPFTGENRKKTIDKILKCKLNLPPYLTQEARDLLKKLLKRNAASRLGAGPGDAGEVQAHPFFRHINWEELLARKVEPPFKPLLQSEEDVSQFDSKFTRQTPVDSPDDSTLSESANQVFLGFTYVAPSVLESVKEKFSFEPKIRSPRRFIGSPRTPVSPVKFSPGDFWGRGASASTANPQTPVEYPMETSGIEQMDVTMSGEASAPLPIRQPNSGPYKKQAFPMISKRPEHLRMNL
# [7] = Anti-inflammatory activity against human derived medium respond PBMC cells assessed as inhibition in stimulated IL-1alpha cytokine release incubated for 2 hrs in the presence of LPS/SEB/aCD28 by Luminex based sandwich immunoassay; assay type: functional, cell-based
# [8] = molecular target: Dual specificity tyrosine-phosphorylation-regulated kinase 3 (Homo sapiens) (UniProt O43781); experiment: Inhibition of human DYRK3 assessed as residual activity at 1 uM using RBER-IRStide as substrate in presence of 33P-ATP by ProQinase assay relative to control
# [9] = molecular target: Leucine-rich repeat serine/threonine-protein kinase 2 (Homo sapiens) (UniProt Q5S007); experiment: Inhibition of human LRRK2 assessed as residual activity at 1 uM using RBER-GSK3(14-27) as substrate in presence of 33P-ATP by ProQinase assay relative to control
# Leucine-rich repeat serine/threonine-protein kinase 2 (Homo sapiens), sequence (Q5S007 whole entry): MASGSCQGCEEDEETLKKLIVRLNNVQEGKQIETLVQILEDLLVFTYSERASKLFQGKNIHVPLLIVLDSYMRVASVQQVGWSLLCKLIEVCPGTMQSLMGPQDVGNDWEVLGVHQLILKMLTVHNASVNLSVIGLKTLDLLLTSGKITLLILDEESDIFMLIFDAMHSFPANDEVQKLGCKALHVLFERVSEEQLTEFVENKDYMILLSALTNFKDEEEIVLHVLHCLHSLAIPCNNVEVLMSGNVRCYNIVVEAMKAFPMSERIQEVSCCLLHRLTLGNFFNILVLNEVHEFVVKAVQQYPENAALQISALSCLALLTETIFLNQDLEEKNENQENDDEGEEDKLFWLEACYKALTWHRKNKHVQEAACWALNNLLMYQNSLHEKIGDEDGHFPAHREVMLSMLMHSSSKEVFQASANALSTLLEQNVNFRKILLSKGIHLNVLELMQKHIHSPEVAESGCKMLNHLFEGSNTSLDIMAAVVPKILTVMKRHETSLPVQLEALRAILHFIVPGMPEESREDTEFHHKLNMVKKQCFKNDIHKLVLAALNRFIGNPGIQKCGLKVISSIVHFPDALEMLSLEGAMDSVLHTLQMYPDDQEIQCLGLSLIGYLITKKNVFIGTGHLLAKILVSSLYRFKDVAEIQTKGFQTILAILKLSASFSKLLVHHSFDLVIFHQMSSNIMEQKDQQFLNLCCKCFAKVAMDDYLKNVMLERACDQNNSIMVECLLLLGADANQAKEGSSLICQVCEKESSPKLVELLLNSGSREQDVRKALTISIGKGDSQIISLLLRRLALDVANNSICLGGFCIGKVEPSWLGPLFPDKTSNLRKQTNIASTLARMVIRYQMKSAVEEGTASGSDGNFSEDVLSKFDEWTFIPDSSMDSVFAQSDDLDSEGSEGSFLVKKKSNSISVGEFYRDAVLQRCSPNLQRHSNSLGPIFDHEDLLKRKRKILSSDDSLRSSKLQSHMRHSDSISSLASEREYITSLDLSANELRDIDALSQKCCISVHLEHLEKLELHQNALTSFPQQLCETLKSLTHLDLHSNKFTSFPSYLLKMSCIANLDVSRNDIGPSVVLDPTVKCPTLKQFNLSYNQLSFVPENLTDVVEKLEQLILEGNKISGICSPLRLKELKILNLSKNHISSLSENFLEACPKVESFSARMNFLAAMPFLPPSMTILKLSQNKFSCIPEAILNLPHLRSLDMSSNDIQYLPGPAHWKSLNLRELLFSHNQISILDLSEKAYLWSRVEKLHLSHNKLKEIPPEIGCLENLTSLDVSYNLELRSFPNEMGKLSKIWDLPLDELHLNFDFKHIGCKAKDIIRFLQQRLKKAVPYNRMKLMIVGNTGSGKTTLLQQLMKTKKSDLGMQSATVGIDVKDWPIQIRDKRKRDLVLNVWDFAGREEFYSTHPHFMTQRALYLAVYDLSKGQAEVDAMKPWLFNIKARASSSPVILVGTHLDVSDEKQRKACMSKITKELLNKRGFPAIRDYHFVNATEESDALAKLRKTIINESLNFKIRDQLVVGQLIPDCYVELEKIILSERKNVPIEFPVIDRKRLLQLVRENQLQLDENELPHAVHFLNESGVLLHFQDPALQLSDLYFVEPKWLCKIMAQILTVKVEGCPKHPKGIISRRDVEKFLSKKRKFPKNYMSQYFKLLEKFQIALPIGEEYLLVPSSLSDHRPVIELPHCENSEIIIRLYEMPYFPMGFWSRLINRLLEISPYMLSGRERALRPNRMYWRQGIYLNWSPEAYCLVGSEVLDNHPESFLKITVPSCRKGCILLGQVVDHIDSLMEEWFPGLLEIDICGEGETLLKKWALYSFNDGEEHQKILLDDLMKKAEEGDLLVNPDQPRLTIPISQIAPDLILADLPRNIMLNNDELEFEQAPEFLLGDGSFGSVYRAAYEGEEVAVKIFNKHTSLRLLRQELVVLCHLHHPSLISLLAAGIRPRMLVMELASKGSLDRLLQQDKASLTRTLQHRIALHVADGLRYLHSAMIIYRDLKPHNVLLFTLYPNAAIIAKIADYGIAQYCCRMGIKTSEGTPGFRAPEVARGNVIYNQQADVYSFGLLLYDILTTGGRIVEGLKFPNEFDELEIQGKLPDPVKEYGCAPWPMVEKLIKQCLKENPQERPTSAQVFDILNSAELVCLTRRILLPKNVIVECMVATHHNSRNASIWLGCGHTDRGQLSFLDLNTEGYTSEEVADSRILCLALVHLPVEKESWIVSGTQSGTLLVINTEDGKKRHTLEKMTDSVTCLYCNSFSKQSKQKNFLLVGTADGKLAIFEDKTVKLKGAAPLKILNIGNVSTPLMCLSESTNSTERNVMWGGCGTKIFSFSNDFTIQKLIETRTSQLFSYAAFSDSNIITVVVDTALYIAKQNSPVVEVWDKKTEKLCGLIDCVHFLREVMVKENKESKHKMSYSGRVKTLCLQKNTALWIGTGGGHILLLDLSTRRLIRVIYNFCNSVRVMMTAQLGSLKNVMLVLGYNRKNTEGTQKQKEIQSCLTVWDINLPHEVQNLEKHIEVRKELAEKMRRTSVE
# [10] = molecular target: Serine/threonine-protein kinase 26 (Homo sapiens) (UniProt Q9P289); experiment: Inhibition of human MST4 assessed as residual activity at 1 uM using RB-CTF as substrate in presence of 33P-ATP by ProQinase assay relative to control
# [11] = system: Leucine-rich repeat serine/threonine-protein kinase 2 (Homo sapiens), Q5S007 [G2019S]; experiment: Inhibition of human LRRK2 G2019S mutant assessed as residual activity at 1 uM using RBER-GSK3(14-27) as substrate in presence of 33P-ATP by ProQinase assay relative to control
# Leucine-rich repeat serine/threonine-protein kinase 2 (Homo sapiens), Q5S007 [G2019S], sequence (Q5S007 whole entry G2019S): as the sequence (Q5S007 whole entry) above, with G2019S counted along it
# [12] = molecular target: Serine/threonine-protein kinase TAO1 (Homo sapiens) (UniProt Q7L7X3); experiment: Inhibition of TAOK1 (unknown origin) assessed as remaining activity at 1 uM by Kinome scan method relative to control
# Serine/threonine-protein kinase TAO1 (Homo sapiens), sequence (Q7L7X3 whole entry): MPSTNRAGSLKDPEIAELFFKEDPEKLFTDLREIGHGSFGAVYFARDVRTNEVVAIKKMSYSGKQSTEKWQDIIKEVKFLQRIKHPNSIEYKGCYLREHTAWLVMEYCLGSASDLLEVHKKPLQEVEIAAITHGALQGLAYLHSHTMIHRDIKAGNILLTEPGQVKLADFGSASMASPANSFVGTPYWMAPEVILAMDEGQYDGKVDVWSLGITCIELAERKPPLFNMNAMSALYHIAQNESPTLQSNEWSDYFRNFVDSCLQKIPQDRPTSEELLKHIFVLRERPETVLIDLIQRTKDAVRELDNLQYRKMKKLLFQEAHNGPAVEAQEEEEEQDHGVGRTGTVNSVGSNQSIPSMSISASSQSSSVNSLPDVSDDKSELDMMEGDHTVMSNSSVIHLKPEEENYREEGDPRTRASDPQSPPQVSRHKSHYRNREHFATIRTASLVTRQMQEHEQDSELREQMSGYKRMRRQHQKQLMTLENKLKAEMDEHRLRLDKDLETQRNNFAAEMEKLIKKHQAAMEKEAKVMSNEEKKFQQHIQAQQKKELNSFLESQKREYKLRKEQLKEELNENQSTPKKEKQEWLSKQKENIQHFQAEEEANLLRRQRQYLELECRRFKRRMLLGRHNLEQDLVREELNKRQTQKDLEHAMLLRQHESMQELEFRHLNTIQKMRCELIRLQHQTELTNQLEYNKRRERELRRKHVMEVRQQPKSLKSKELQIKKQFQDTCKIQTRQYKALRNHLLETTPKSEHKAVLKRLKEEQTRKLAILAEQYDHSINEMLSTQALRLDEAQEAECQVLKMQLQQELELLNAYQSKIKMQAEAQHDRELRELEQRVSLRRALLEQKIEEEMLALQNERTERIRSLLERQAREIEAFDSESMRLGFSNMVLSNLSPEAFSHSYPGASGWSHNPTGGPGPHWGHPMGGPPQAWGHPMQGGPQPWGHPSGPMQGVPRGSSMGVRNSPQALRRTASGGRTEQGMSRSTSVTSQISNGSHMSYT
# [13] = molecular target: G protein-coupled receptor kinase 3 (Homo sapiens) (UniProt P35626); experiment: Inhibition of human GRK3 assessed as residual activity at 1 uM using casein as substrate in presence of 33P-ATP by ProQinase assay relative to control
# [14] = molecular target: G protein-coupled receptor kinase 4 (Homo sapiens) (UniProt P32298); experiment: Inhibition of GRK4 (unknown origin) assessed as remaining activity at 1 uM by Kinome scan method relative to control
# [15] = molecular target: Macrophage colony-stimulating factor 1 receptor (Homo sapiens) (UniProt P07333); experiment: Inhibition of CSF1R (unknown origin) assessed as remaining activity at 1 uM by Kinome scan method relative to control
# [16] = molecular target: Serine/threonine-protein kinase N1 (Homo sapiens) (UniProt Q16512); experiment: Inhibition of PKN1 (unknown origin) assessed as remaining activity at 1 uM by Kinome scan method relative to control
# [17] = molecular target: Tyrosine-protein kinase Srms (Homo sapiens) (UniProt Q9H3Y6); experiment: Inhibition of SRMS (unknown origin) assessed as remaining activity at 1 uM by Kinome scan method relative to control
# Tyrosine-protein kinase Srms (Homo sapiens), sequence (Q9H3Y6 whole entry): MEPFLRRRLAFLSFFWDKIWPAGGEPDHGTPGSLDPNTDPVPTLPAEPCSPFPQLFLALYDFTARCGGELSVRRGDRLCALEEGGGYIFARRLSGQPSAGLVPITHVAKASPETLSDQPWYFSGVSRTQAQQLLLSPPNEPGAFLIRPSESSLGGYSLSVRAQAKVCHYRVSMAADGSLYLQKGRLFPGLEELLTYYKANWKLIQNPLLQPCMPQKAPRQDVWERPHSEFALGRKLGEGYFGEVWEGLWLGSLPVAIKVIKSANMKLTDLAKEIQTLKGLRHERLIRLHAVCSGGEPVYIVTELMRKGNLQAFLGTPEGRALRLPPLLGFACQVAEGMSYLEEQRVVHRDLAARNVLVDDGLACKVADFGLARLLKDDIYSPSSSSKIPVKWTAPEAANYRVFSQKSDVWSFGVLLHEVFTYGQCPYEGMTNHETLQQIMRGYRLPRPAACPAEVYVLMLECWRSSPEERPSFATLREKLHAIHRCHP
# [18] = molecular target: Serine/threonine-protein kinase B-raf (Homo sapiens) (UniProt P15056); experiment: Inhibition of BRAF (unknown origin) assessed as remaining activity at 1 uM by Kinome scan method relative to control
# [19] = molecular target: Serine/threonine-protein kinase TAO2 (Homo sapiens) (UniProt Q9UL54); experiment: Inhibition of human TAOK2 assessed as residual activity at 1 uM using casein as substrate in presence of 33P-ATP by ProQinase assay relative to control
# [20] = molecular target: Casein kinase I isoform gamma-1 (Homo sapiens) (UniProt Q9HCP0); experiment: Inhibition of human CK1gamma1 assessed as residual activity at 1 uM using casein as substrate in presence of 33P-ATP by ProQinase assay relative to control
# [21] = molecular target: MAP kinase-activated protein kinase 2 (Homo sapiens) (UniProt P49137); experiment: Inhibition of human MAPKAPK2 assessed as residual activity at 1 uM using RBER-CHKtide as substrate in presence of 33P-ATP by ProQinase assay relative to control
# [22] = molecular target: Fibroblast growth factor receptor 1 (Homo sapiens) (UniProt P11362); experiment: Inhibition of human FGFR1 assessed as residual activity at 1 uM using PolyEY as substrate in presence of 33P-ATP by ProQinase assay relative to control
# [23] = system: Epidermal growth factor receptor (Homo sapiens), P00533 [L861Q]; experiment: Inhibition of human EGFR L861Q mutant assessed as residual activity at 1 uM using PolyEY as substrate in presence of 33P-ATP by ProQinase assay relative to control
# [24] = molecular target: Serine/threonine-protein kinase ULK2 (Homo sapiens) (UniProt Q8IYT8); experiment: Inhibition of ULK2 (unknown origin) assessed as remaining activity at 1 uM by Kinome scan method relative to control
# [25] = molecular target: Vascular endothelial growth factor receptor 2 (Homo sapiens) (UniProt P35968); experiment: Inhibition of human VEGFR2 assessed as residual activity at 1 uM using polyEY as substrate in presence of 33P-ATP by ProQinase assay relative to control
# [26] = molecular target: Mitogen-activated protein kinase 8 (Homo sapiens) (UniProt P45983); experiment: Inhibition of human JNK1 assessed as residual activity at 1 uM using ATF2 as substrate in presence of 33P-ATP by ProQinase assay relative to control
# Mitogen-activated protein kinase 8 (Homo sapiens), sequence (P45983 whole entry): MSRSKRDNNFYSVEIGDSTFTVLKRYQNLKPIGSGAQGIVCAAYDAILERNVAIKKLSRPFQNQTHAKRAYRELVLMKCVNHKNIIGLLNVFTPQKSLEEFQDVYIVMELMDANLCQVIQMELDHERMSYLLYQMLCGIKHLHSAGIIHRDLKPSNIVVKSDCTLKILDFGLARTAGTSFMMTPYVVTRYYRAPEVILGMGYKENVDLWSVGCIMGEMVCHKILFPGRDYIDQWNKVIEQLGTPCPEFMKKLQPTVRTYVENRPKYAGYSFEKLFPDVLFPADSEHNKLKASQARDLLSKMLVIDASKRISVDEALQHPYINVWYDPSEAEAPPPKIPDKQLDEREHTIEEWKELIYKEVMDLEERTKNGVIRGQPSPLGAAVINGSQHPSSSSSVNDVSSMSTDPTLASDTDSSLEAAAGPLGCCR
# [27] = molecular target: 5'-AMP-activated protein kinase catalytic subunit alpha-1 (Homo sapiens) (UniProt Q13131); experiment: Inhibition of AMPK-alpha1 (unknown origin) assessed as remaining activity at 1 uM by Kinome scan method relative to control
structure (smiles),measurement,setting,value
O=C1c2ccc(Nc3ccc(F)cc3F)cc2CCc2ccc(OC[C@H](O)CO)cc21 [Skepinone-L],Activity,[1],98%
same,IC50,[2],Not Active
same,Activity,[3],101%
same,Activity,[4],92%
same,Activity,[5],97%
same,inhibition at 10 µM,CYP1A,-19%
same,Activity,[6],85%
same,pIC50,[7],6.43
same,Activity,[8],98%
same,Activity,[9],98%
same,Activity,[10],106%
same,Activity,[11],77%
same,Activity,[12],100%
same,Activity,[13],95%
same,Activity,[14],100%
same,Activity,[15],92%
same,Activity,[16],91%
same,Activity,[17],90%
same,Activity,[18],100%
same,Activity,[19],102%
same,Activity,[20],97%
same,Activity,[21],80%
same,Activity,[22],117%
same,Activity,[23],94%
same,Activity,[24],100%
same,Activity,[25],91%
same,Activity,[26],98%
same,Activity,[27],98%

# From ChEMBL document CHEMBL5696441 (Nat Chem Biol, 2011)
